Test results taken from patent US10189809B2, “SGC stimulators” (Ironwood Pharmaceuticals, Inc., priority 2010, dated 2019).

Legend:
[1] = target: T1, Human soluble guanylate cyclase enzyme (hsGC) (Homo sapiens (Human), UniProt Q02108+Q02153); test: Purified human sGC enzyme activity assay; type: biochemical; settings: without the addition of SNP; for sGC Enzyme (fold increase at 30 μM): 30 μM compound
Method in brief: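 Purified human sGC (5 ng) incubated 30 min at 37° C with compound at 10 or 30 μM final in pH 8.0 Tris with 300 μM GTP, 2 mM MgCl2, 2 mM DTT and 1 mM IBMX, then stopped with cold methanol. cGMP quantified against a standard curve. Specific activity (nmol cGMP/mg sGC/min) expressed as fold-change over DMSO control.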

[2] = target: soluble guanylate cyclase (sGC) (Homo sapiens (Human), UniProt Q02108+Q02153); test: sGC-HEK-cGMP assay run with SNP incubation (HEK WC assay); type: cell-based; settings: for Emax at 10 µM: read-out: HEK WC Assay (% Emax at 10 μM/with 10 uM SNP); for Emax at 30 µM: read-out: HEK WC Assay (% Emax at 30 μM/with 10 uM SNP)
Sequence of soluble guanylate cyclase (sGC) (Q02153 whole entry): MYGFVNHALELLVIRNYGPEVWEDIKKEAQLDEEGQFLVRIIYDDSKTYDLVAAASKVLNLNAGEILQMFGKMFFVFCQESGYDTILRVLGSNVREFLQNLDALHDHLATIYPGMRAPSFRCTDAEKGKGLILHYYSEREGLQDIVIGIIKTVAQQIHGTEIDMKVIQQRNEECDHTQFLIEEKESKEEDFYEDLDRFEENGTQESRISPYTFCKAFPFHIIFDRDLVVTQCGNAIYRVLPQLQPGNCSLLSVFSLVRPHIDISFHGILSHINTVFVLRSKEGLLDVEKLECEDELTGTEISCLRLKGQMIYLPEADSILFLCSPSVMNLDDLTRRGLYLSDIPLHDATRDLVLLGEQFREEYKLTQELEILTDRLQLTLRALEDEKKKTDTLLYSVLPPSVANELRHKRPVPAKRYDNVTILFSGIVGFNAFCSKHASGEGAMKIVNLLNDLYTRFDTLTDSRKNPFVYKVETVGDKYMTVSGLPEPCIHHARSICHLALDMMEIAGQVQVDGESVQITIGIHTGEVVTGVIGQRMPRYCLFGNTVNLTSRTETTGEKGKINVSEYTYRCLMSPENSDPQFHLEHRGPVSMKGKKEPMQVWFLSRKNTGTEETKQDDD
Sequence of soluble guanylate cyclase (sGC) (Q02108 whole entry): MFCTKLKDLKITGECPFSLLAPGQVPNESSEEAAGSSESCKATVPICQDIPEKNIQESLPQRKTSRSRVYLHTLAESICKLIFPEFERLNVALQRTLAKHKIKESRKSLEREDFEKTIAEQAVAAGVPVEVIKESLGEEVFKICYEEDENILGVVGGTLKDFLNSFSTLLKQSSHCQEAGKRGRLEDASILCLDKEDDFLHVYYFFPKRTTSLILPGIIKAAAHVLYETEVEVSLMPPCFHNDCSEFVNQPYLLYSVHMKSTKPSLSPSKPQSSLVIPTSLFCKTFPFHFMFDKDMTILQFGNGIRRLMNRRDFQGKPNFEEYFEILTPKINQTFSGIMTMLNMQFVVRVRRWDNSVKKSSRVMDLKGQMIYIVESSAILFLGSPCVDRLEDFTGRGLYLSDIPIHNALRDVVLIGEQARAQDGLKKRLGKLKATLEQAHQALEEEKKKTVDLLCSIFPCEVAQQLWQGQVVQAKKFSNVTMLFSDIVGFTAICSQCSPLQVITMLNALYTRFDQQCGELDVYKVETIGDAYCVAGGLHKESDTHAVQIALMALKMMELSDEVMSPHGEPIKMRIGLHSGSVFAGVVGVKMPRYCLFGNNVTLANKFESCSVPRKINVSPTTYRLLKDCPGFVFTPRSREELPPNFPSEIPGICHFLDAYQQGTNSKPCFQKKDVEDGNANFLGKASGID
Method in brief: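 HEK293 cells with endogenous sGC were pretreated with 0.5 mM IBMX for 15 min at 37 °C, then exposed to test compound plus sodium nitroprusside for 10 min at 37 °C.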

Thoracic aortic rings = test: Alternative thoracic aortic rings assay (Example 19b; resting tension as 100% inhibition); parameters: species or system rat; settings: Table 10A; for inhibition at 3 µM / inhibition at 10 µM / inhibition at 1 µM / EC50: Rattus norvegicus; for inhibition at 3 µM: read-out: Percent Relaxation at 3 μM; for inhibition at 10 µM: read-out: Percent Relaxation at 10 μM; for inhibition at 1 µM: read-out: Percent Relaxation at 1 μM; for EC50: read-out: Aortic Ring EC50
Method in brief: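 Aortic rings (~2 mm) from male Sprague-Dawley rats (275-299 g) held at 1.0 g resting tension in Krebs-Henseleit at 37 °C under 95% O2/5% CO2, then precontracted with 100 ng/mL phenylephrine. Compounds in DMSO added cumulatively; relaxation recorded by force transducer and EC50 taken from concentration-response curves.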

[3] = target: T1, Human soluble guanylate cyclase enzyme (hsGC); test: Purified human sGC enzyme synergy assay in the presence of 1 μM sodium nitroprusside (SNP); type: biochemical; settings: 30 μM compound, with the addition of SNP
Method in brief: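 Purified human sGC (5 ng) incubated 30 min at 37 °C with compounds at 10 or 30 μM, 1 μM sodium nitroprusside, 300 μM GTP and 1 mM IBMX in Tris pH 8.0 with MgCl2/DTT. cGMP quantified against a standard curve, and specific activity expressed as fold-change over DMSO control.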

T1 sequence (Q02153 whole entry): as the sequence (Q02153 whole entry) above
T1 sequence (Q02108 whole entry): as the sequence (Q02108 whole entry) above

Compound	sGC Enzyme (fold increase at 30 μM) [1]	Emax at 10 µM [2]	Emax at 30 µM [2]	Percent Relaxation at 1 μM (Thoracic aortic rings; 1 μM, printed as number or words instead of code)	inhibition at 3 µM (Thoracic aortic rings)	inhibition at 10 µM (Thoracic aortic rings)	sGC Enzyme (fold increase at 30 μM with SNP) [3]	sGC Enzyme (fold increase at 10 μM) ([1]; 10 μM compound)	inhibition at 1 µM (Thoracic aortic rings; 1 μM)	EC50 (Thoracic aortic rings)
COC(=O)N(C)c1c(N)nc(-c2cc(-c3ccsc3)n(Cc3ccccc3F)n2)nc1N [Compound I-72]	D (D = 10 to <30 fold increase)	20 to 40%	20 to 40%	3.1	20 to 40%	60 to 80%	D (D = 10 to <30 fold increase)	–	–	–
Fc1ccccc1Cn1nc(-c2ncccn2)cc1-c1ccccn1 [Compound I-75]	B (B = 2 to <5 fold increase)	10 to 20%	20 to 40%	–	20 to 40%	60 to 80%	D (D = 10 to <30 fold increase)	A (A = no increase to <2 fold increase)	10 to 20%	2000 to 4000 nM
Nc1ccnc(-c2cc(-c3ccccc3)n(Cc3ccccc3F)n2)n1 [Compound I-82]	C (C = 5 to <10 fold increase)	10 to 20%	10 to 20%	–	20 to 40%	80 to 100%	C (C = 5 to <10 fold increase)	–	10 to 20%	4000 to 8000 nM
Fc1ccccc1Cn1nc(-c2ncccn2)cc1-c1cscn1 [Compound I-85]	C (C = 5 to <10 fold increase)	–	100 to 120%	–	80 to 100%	100 to 120%	D (D = 10 to <30 fold increase)	–	60 to 80%	< 2000 nM
Nc1ccnc(-c2cc(-c3nccs3)n(Cc3ccccc3F)n2)n1 [Compound I-86]	C (C = 5 to <10 fold increase)	40 to 60%	60 to 80%	–	80 to 100%	100 to 120%	D (D = 10 to <30 fold increase)	–	40 to 60%	< 2000 nM
Nc1ccnc(-c2cc(-c3ncco3)n(Cc3ccccc3F)n2)n1 [Compound I-87]	D (D = 10 to <30 fold increase)	60 to 80%	100 to 120%	–	80 to 100%	100 to 120%	D (D = 10 to <30 fold increase)	–	60 to 80%	< 2000 nM
Nc1ccnc(-c2cc(-c3cscn3)n(Cc3ccccc3F)n2)n1 [Compound I-92]	B (B = 2 to <5 fold increase)	20 to 40%	20 to 40%	–	80 to 100%	–	D (D = 10 to <30 fold increase)	–	60 to 80%	< 2000 nM
Nc1ccnc(-c2cc(-c3ccon3)n(Cc3ccccc3F)n2)n1 [Compound I-97]	D (D = 10 to <30 fold increase)	40 to 60%	40 to 60%	–	100 to 120%	100 to 120%	D (D = 10 to <30 fold increase)	–	80 to 100%	< 2000 nM
Nc1ccnc(-c2cc(-c3cocn3)n(Cc3ccccc3F)n2)n1 [Compound I-98]	B (B = 2 to <5 fold increase)	20 to 40%	20 to 40%	–	100 to 120%	100 to 120%	D (D = 10 to <30 fold increase)	–	60 to 80%	< 2000 nM
COC(=O)Nc1c(N)nc(-c2cc(-c3ncco3)n(Cc3ccccc3F)n2)nc1N [Compound I-99]	B (B = 2 to <5 fold increase)	20 to 40%	40 to 60%	–	20 to 40%	80 to 100%	C (C = 5 to <10 fold increase)	–	0 to 10%	< 2000 nM
COC(=O)N(C)c1c(N)nc(-c2cc(-c3ncco3)n(Cc3ccccc3F)n2)nc1N [Compound I-100]	B (B = 2 to <5 fold increase)	20 to 40%	40 to 60%	–	60 to 80%	100 to 120%	C (C = 5 to <10 fold increase)	–	20 to 40%	< 2000 nM
Nc1nc(-c2cc(-c3ccon3)n(Cc3ccccc3F)n2)ncc1-c1ccncc1 [Compound I-102]	B (B = 2 to <5 fold increase)	40 to 60%	20 to 40%	–	60 to 80%	80 to 100%	C (C = 5 to <10 fold increase)	–	20 to 40%	< 2000 nM
COC(=O)N(C)c1cnc(-c2cc(-c3ccon3)n(Cc3ccccc3F)n2)nc1N [Compound I-105]	C (C = 5 to <10 fold increase)	80 to 100%	100 to 120%	–	80 to 100%	100 to 120%	C (C = 5 to <10 fold increase)	–	60 to 80%	< 2000 nM
N#Cc1cnc(-c2cc(-c3ccon3)n(Cc3ccccc3F)n2)nc1O [Compound I-110]	B (B = 2 to <5 fold increase)	60 to 80%	60 to 80%	–	60 to 80%	80 to 100%	C (C = 5 to <10 fold increase)	–	40 to 60%	< 2000 nM
CC(=O)Nc1cnc(-c2cc(-c3ccon3)n(Cc3ccccc3F)n2)nc1N [Compound I-112, N-(4-amino-2-(1-(2-fluorobenzyl)-5-(isoxazol-3-yl)-1H-pyrazol-3-yl)pyrimidin-5-yl)acetamide]	C (C = 5 to <10 fold increase)	100 to 120%	80 to 100%	–	> 120%	100 to 120%	D (D = 10 to <30 fold increase)	–	80 to 100%	< 2000 nM
CN(C(=O)OC(C)(C)C)c1cnc(-c2cc(-c3ccon3)n(Cc3ccccc3F)n2)nc1N [Compound I-115]	C (C = 5 to <10 fold increase)	80 to 100%	60 to 80%	–	40 to 60%	80 to 100%	D (D = 10 to <30 fold increase)	–	20 to 40%	2000 to 4000 nM
